Experimental data reported in ChEMBL document CHEMBL5033996, “Design, Synthesis, and Bioactivity Evaluation of Dual-Target Inhibitors of Tubulin and Src Kinase Guided by Crystal Structure” (J Med Chem, 2021).
One block for each molecule: values may come before it. Calls of active or inactive are those of the source. No cut-off for these calls is given here.

What was measured:
K562 = test: Antiproliferative activity against human K562 cells assessed as inhibition of cell proliferation measured after 72 hrs by MTT assay; assay type: functional, cell-based; conditions: K562, 72 h
SK-OV-3 [1] = test: Antiproliferative activity against human SK-OV-3 cells assessed as inhibition of cell proliferation measured after 72 hrs by MTT assay; assay type: functional, cell-based; conditions: SK-OV-3, 72 h
Ramos = test: Antiproliferative activity against human Ramos cells assessed as inhibition of cell proliferation measured after 72 hrs by MTT assay; assay type: functional, cell-based
SK-OV-3 [2] = test: Induction of cell cycle arrest in human SK-OV-3 cells assessed as accumulation od cells at G2/M phase at 5 nM incubated for 24 hrs by PI staining based flow cytometry analysis (reference value: 28.94%); assay type: functional
SK-OV-3 [3] = test: Induction of cell cycle arrest in human SK-OV-3 cells assessed as accumulation of cells at S phase at 5 nM incubated for 24 hrs by PI staining based flow cytometry analysis (reference value: 21.4 %); assay type: functional
[4] = Oral bioavailability in Sprague-Dawley rat at 5 mg/kg measured up to 24 hrs by LC/MS/MS analysis; assay type: ADME, organism-based; conditions: in vivo
SK-OV-3 [5] = test: Induction of cell cycle arrest in human SK-OV-3 cells assessed as accumulation of cells at G0/G1 phase at 5 nM incubated for 24 hrs by PI staining based flow cytometry analysis (reference value: 49.60 %); assay type: functional
[6] = Toxicity in mouse xenografted with human SK-OV-3 cells assessed as effect on body weight at 5 mg/kg, po administered for 30 days; assay type: organism-based; conditions: in vivo, 720 h, time 30 day
[7] = Cmax in Sprague-Dawley rat at 5 mg/kg, po measured up to 24 hrs by LC/MS/MS analysis; assay type: ADME, organism-based; parameters: route oral, dose 5 mg/kg, time <=24; conditions: in vivo
[8] = Toxicity in C57 mouse at 40 mg/kg, po administered twice daily; assay type: organism-based; conditions: in vivo
SK-OV-3 [9] = test: Induction of cell cycle arrest in human SK-OV-3 cells assessed as accumulation of cells at S phase at 1 nM incubated for 24 hrs by PI staining based flow cytometry analysis (reference value: 21.4 %); assay type: functional
[10] = AUC (0 to t) in Sprague-Dawley rat at 5 mg/kg, po measured up to 24 hrs by LC/MS/MS analysis; assay type: ADME, organism-based; parameters: route oral, dose 5 mg/kg, time <=24; conditions: in vivo
SK-OV-3 [11] = test: Induction of mitotic block in human SK-OV-3 cells at 10 to 30 nM in presence of colchicine measured immediately by flow cytometry analysis; assay type: functional, cell-based; conditions: dose 10-30 nM
[12] = Antitumor activity against mouse C26 cells xenografted in BALB/c mouse assessed as tumor growth inhibition at 10 mg/kg, po measured every 2 days for 10 days by vernier caliper analysis relative to control; assay type: functional; conditions: 240 h, time 10 day, read-out: TGI
[13] = Antitumor activity against human SK-OV-3 cells xenografted in nude mouse assessed as tumor growth inhibition at 10 mg/kg, po measured every 3 days for 1 month by vernier caliper analysis relative to control; assay type: functional; conditions: SK-OV-3, po, 730 h, time 1 months, read-out: TGI
SK-OV-3 [14] = test: Induction of mitotic block in human SK-OV-3 cells at 300 nM measured after 10 hrs by flow cytometry analysis; assay type: functional, cell-based
[15] = Intrinsic clearance in human liver microsomes; assay type: ADME, Microsome
[16] = Antitumor activity against human SK-OV-3 cells xenografted in nude mouse assessed as tumor growth inhibition at 5 mg/kg, po measured every 3 days for 1 month by vernier caliper analysis relative to control; assay type: functional; conditions: SK-OV-3, po, 730 h, time 1 months, read-out: TGI
Tubulin (Homo sapiens) = Tubulin (Homo sapiens) (UniProt P68371+Q9H4B7+P0DPH7+P68366+Q13509+Q71U36+P04350+Q3ZCM7+P07437+P68363+Q9BQE3+Q6PEY2+Q13885+Q9BVA1+Q9BUF5); test: Inhibition of tubulin polymerization in human SK-OV-3 cells at 5 uM incubated for 16 hrs by fluorescence microscopic analysis; assay type: cell-based
SK-OV-3 [17] = test: Induction of cell cycle arrest in human SK-OV-3 cells assessed as accumulation of cells at G2/M phase at 10 nM incubated for 24 hrs by PI staining based flow cytometry analysis (reference value: 28.94%); assay type: functional
[18] = target: Proto-oncogene tyrosine-protein kinase Src (Homo sapiens) (UniProt P12931); test: Inhibition of Src kinase phosphorylation at Tyr416/419 residue in human SK-OV-3 cells incubated for 24 hrs by Western blot analysis; assay type: cell-based
Proto-oncogene tyrosine-protein kinase Src (Homo sapiens), sequence (P12931 2-536 limits assumed): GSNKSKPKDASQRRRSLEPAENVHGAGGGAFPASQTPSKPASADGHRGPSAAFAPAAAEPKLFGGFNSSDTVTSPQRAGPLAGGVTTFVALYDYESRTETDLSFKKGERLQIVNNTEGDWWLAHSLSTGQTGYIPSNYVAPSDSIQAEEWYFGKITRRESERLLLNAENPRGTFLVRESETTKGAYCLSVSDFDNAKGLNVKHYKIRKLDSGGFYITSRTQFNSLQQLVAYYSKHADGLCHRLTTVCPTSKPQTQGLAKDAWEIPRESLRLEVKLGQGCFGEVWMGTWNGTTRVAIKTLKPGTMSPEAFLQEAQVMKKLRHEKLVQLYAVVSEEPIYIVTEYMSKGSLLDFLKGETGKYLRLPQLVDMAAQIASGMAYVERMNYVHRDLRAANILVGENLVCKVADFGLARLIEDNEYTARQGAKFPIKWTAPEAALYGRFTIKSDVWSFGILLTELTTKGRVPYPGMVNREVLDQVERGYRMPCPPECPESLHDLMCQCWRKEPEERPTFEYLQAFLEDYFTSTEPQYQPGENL

SK-OV-3 [19] = test: Induction of cell cycle arrest in human SK-OV-3 cells assessed as accumulation of cells at G2/M phase at 1 nM incubated for 24 hrs by PI staining based flow cytometry analysis (reference value: 28.94%); assay type: functional
SK-OV-3 [20] = test: Induction of cell cycle arrest in human SK-OV-3 cells assessed as accumulation of cells at G0/G1 phase at 10 nM incubated for 24 hrs by PI staining based flow cytometry analysis (reference value: 49.60 %); assay type: functional
[21] = Tmax in Sprague-Dawley rat at 5 mg/kg, po measured up to 24 hrs by LC/MS/MS analysis; assay type: ADME, organism-based; conditions: in vivo
[22] = Half life in Sprague-Dawley rat at 5 mg/kg, po measured up to 24 hrs by LC/MS/MS analysis; assay type: ADME, organism-based; conditions: in vivo
[23] = Clearance in Sprague-Dawley rat at 5 mg/kg, po measured up to 24 hrs by LC/MS/MS analysis; assay type: ADME, organism-based; conditions: in vivo
[24] = Toxicity in mouse xenografted with human SK-OV-3 cells assessed as effect on body weight at 10 mg/kg, po administered for 30 days; assay type: organism-based; conditions: in vivo, 720 h, time 30 day
SK-OV-3 [25] = test: Induction of cell cycle arrest in human SK-OV-3 cells assessed as accumulation of cells at G0/G1 phase at 1 nM incubated for 24 hrs by PI staining based flow cytometry analysis (Rvb= 49.60%); assay type: functional
[26] = target: Focal adhesion kinase 1 (Homo sapiens) (UniProt Q05397); test: Inhibition of FAK phosphorylation at […] residue in human SK-OV-3 cells incubated for 24 hrs by Western blot analysis; assay type: cell-based
Focal adhesion kinase 1 (Homo sapiens), sequence (Q05397 2-1052 limits assumed): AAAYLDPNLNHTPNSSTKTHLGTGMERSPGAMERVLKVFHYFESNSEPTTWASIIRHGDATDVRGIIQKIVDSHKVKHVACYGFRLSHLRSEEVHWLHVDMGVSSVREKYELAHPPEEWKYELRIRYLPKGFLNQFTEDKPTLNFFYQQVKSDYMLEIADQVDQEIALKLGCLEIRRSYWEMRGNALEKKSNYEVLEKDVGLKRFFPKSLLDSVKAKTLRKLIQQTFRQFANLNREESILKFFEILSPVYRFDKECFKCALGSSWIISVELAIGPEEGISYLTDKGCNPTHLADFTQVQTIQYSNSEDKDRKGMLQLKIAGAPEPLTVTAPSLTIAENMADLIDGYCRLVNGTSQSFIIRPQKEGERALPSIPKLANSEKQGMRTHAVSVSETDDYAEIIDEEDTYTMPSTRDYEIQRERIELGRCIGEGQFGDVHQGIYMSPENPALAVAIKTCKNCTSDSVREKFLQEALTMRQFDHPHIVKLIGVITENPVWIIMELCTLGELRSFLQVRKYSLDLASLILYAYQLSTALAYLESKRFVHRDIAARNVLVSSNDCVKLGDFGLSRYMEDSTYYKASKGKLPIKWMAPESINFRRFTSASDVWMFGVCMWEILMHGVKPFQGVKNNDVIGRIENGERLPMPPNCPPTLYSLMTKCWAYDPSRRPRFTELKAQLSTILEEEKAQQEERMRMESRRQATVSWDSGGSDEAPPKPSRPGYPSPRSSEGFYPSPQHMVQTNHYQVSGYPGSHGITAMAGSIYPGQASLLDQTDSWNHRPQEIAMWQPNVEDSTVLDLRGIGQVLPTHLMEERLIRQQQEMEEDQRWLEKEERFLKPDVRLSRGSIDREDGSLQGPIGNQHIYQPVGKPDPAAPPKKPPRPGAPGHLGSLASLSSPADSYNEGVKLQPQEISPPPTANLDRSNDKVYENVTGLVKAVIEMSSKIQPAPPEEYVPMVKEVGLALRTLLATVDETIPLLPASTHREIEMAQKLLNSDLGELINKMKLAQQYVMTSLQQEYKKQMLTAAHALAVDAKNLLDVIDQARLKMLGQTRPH

SK-OV-3 [27] = test: Induction of cell cycle arrest in human SK-OV-3 cells assessed as accumulation of cells at S phase at 10 nM incubated for 24 hrs by PI staining based flow cytometry analysis (reference value: 21.4 %); assay type: functional
[28] = Half life in human liver microsomes; assay type: ADME, Microsome
Tubulin = test: Binding affinity to tubulin (unknown origin) assessed as dissociation constant by tryptophan based binding assay; assay type: protein-complex assay, Homo sapiens

Compound: CC(=O)N1CCN(CCOc2ccc(-c3ccc(CC(=O)NCc4ccccc4)nc3)cc2)CC1
IC50 (K562): 14.4 nM | IC50 (SK-OV-3 [1]): 4 nM | IC50 (Ramos): 7.3 nM

Compound: O=C(Cc1ccc(-c2ccc(OCCCN3CCOCC3)cc2)cn1)NCc1ccccc1
IC50 (K562): 50.9 nM | IC50 (SK-OV-3 [1]): 15.6 nM | IC50 (Ramos): 129 nM

Compound: O=C(Cc1ccc(-c2ccc(OCCN3CCN(S(=O)(=O)C4CC4)CC3)cc2)cn1)NCc1ccccc1
IC50 (K562): 5.8 nM | IC50 (SK-OV-3 [1]): 2.4 nM | IC50 (Ramos): 4.1 nM

Compound: COC1CCN(CCOc2ccc(-c3ccc(CC(=O)NCc4ccccc4)nc3)cc2)CC1
IC50 (K562): 13 nM | IC50 (SK-OV-3 [1]): 8.1 nM | IC50 (Ramos): 15.8 nM

Compound: O=C(Cc1ccc(-c2ccc(OCCNC3CC3)cc2)cn1)NCc1ccccc1
IC50 (K562): 29.3 nM | IC50 (SK-OV-3 [1]): 5.2 nM | IC50 (Ramos): 98.1 nM

Compound: O=C(Cc1ccc(-c2ccc(OCCN3CC4CCCCC4C3)cc2)cn1)NCc1ccccc1 (stereo not drawn)
IC50 (K562): 37.9 nM | IC50 (SK-OV-3 [1]): 74.9 nM | IC50 (Ramos): 19.7 nM

Continued, in another order:

IC50 (K562): 14.6 nM | IC50 (SK-OV-3 [1]): 7.1 nM | IC50 (Ramos): 8.6 nM
Compound: O=C(Cc1ccc(-c2ccc(OCCCN3CC4CCC(C3)O4)cc2)cn1)NCc1ccccc1

IC50 (K562): 29.2 nM | IC50 (SK-OV-3 [1]): 9.1 nM | IC50 (Ramos): 19.6 nM
Compound: O=C(Cc1ccc(-c2ccc(OCCN3CC4CC4C3)cc2)cn1)NCc1ccccc1 (stereo not drawn)

IC50 (K562): > 100 nM | IC50 (SK-OV-3 [1]): 119 nM | IC50 (Ramos): 43.3 nM
Compound: CC(C)(C)N1CCN(CCOc2ccc(-c3ccc(CC(=O)NCc4ccccc4)nc3)cc2)CC1

bioavailability [4]: 24.3% | Cmax [7]: 398 ng/mL | AUC(0-t) at 24 h [10]: 1050 ng·h/mL | IC50 (K562): 1 nM | CLH [15]: 49.8 mL·min/g | IC50 (SK-OV-3 [1]): 0.61 nM | inhibition (Tubulin (Homo sapiens)): Active | IC50 (Ramos): 1.4 nM | inhibition [18]: Dose-Dependent Effect | Tmax [21]: 19.8 min | half-life [22]: 231 min | CL/F [23]: 80.2 mL/min/kg | inhibition [26]: Dose-Dependent Effect | half-life [28]: 27.8 min | Kd (Tubulin): 610 nM
Compound: O=C(Cc1ccc(-c2ccc(OCCN3CCN(C(=O)CC4CC4)CC3)cc2)cn1)NCc1ccccc1
Activity (SK-OV-3 [2]): 39.47% | Activity (SK-OV-3 [3]): 21.42% | Activity (SK-OV-3 [5]): 39.12% | Activity [6]: Non-Toxic | Activity [8]: Non-Toxic | Activity (SK-OV-3 [9]): 21.96% | Activity (SK-OV-3 [11]): Active | inhibition in vivo at 10 mg/kg [12]: 71% | inhibition in vivo at 10 mg/kg [13]: 70% | Activity (SK-OV-3 [14]): Active | inhibition in vivo at 5 mg/kg [16]: 52% | Activity (SK-OV-3 [17]): 72.04% | Activity (SK-OV-3 [19]): 32.11% | Activity (SK-OV-3 [20]): 12.1% | Activity [24]: Non-Toxic | Activity (SK-OV-3 [25]): 45.93% | Activity (SK-OV-3 [27]): 15.86%

IC50 (K562): 34.1 nM | IC50 (SK-OV-3 [1]): 97.5 nM | IC50 (Ramos): > 100 nM
Compound: O=C(Cc1ccc(-c2ccc(OCCN3CCC4(CC3)CC4)cc2)cn1)NCc1ccccc1

IC50 (K562): 29.4 nM | IC50 (SK-OV-3 [1]): 12.6 nM | IC50 (Ramos): 25.7 nM
Compound: O=C(Cc1ccc(-c2ccc(OCCN3CCN(C(=O)[C@H]4C[C@@H]4F)CC3)cc2)cn1)NCc1ccccc1

IC50 (K562): 40.5 nM | IC50 (SK-OV-3 [1]): 21.8 nM | IC50 (Ramos): 17.3 nM
Compound: O=C(Cc1ccc(-c2ccc(OCCCCN3CC4CCC(C3)O4)cc2)cn1)NCc1ccccc1
